Data published in patent US20120101148A1, “LIPID FORMULATION” (ALNYLAM PHARMACEUTICALS, INC., priority 2009, published 2012).

Assay: Stability assay of Lipid A liposomes (LC-ELSD)
Conditions: for degradation of Lipid A in liposome formulation containing antioxidant: pH=5, 37° C., day 5
Procedure: The stability of lipids in formulation were performed and monitored using the following HPLC and ELSD (Evaporative Light Scattering Detector) conditions.
Column: Waters Xbridge C18 2.5 μm 2.1×150 mm reversed phase column
Model: Polymer lab ELS 2100
Evaporator temperature: 90
Nebuliser temperature: 60
Fresh Lipid A liposome samples with loaded siRNA AD1661 were prepared as described herein. These Lipid A liposome samples were incubated in 100 mM NaOAc buffer (pH=5) at 37° C., and were subject to LC-ELSD analysis every other day.
In order to examine whether degradation of Lipid A can be prevented by addition of radical scavengers such as butylated hydroxytoluene (BHT or butylhydroxytoluene), Lipid A-containing liposome formulation LNP08 with lipids molar ratio of 60/7.5/31/1.5 (lipid A/DSPC/Cholesterol/PEG-C14 lipid) loaded with siRNA AD1661 containing BHT was tested in the stability assay as described above. These samples were subject to LC-ELSD analysis at day 5.
In order to examine whether the degradation of Lipid A can be prevented by antioxidants such as vitamin E, Lipid A-containing liposome formulation LNP09 loaded with siRNA AD1661 containing various amount of vitamin E were tested in the stability assay as described above. These samples were subject to LC-ELSD analysis at day 5. Chromatographs comparing the stability of various Lipid A liposome formulations with or without vitamin E were shown in FIG. 34.

Compound	degradation of Lipid A, higher amount of antioxidant (LNP09, pH=5, day 5)	degradation of Lipid A in liposome formulation containing antioxidant
vitamin E	reverse effect	inhibited
Cc1cc(C(C)(C)C)c(O)c(C(C)(C)C)c1 [BHT, butylated hydroxytoluene]		inhibited
